Results taken from patent US7858800B2, “Biaryl derivatives” (Banyu Pharmaceutical Co., Ltd., priority 2004, dated 2010).

Assays:
[1] = target: T1, human metabotropic glutamic acid receptor 1a (mGluR1a) (Homo sapiens, UniProt Q13255); assay: mGluR1-inhibiting action: calcium concentration in CHO cells expressing mGluR1a (FLIPR); assay type: cell-based; settings: suppression of rise in calcium raised by 10 μM glutamic acid, test compound added 5 minutes before agonist
T1 construct: expressed in transfected cells
Procedure: cDNA of human metabotropic glutamic acid receptor 1a (mGluR1a) was transfected to CHO cells using Lipofectamine (manufactured by Gibco BRL) to give a strain which stably expresses mGluR1a. The CHO cells in which mGluR1a was expressed were incubated in a DMEM medium containing 10% of dialyzed fetal bovine serum, 1% of proline, 100 units/ml of penicillin, 0.1 mg/ml of streptomycin sulfate and 2 mM of glutamine.
On the day before the measurement, 4 μM Fluo-3 was incubated in a CO2 incubator for 1 hour to the CHO cells where mGluR1a was expressed being plated with 50,000 cells per well of a 96-well black plate (View Plate manufactured by Packard). After that, the cells were washed for four times with an HBSS solution containing 20 mM of HEPES and 2.5 mM of Probenecid and then calcium concentration in the cells was measured using a Fluorescence Imaging Plate Reader (FLIPR, manufactured by Molecular Device). Incidentally, the test compound and glutamic acid were prepared using an HBSS solution containing 20 mM HEPES and 2.5 mM Probenecid. The test compound was added before 5 minutes of the stimulation with an agonist and, with regard to the agonist, 10 μM glutamic acid was used.

Male ICR (CD-1) mice = assay: Suppressive action on autonomic momentum (behavior quantity) in mice increased by methamphetamine; assay type: in vivo; settings: compound 10 mg/kg intraperitoneally 30 minutes before methamphetamine 2 mg/kg subcutaneous, behavior quantity during 60 minutes
Procedure: Suppressive Action of the Compound to Autonomic Momentum in Mice which Increases by Methamphetamine
Male ICR (CD-1) mice (20 to 40 g) were used and behavior quantity was measured using a behavior quantity measuring device (manufactured by Neuroscience) where movement of animals is perceived by an infrared sensor. A compound or an appropriate solvent was administered to a mouse and, after 30 minutes, a physiological saline solution or methamphetamine was administered. Behavior quantities immediately after that and until 60 minutes thereafter were measured. Difference between the behavior quantity of the methamphetamine-administered group and that of the solvent-administered group during the measuring period was defined as 100% and evaluation was conducted by expressing the inhibitory % in behavior quantity of the test-compound-administered group.

rats = assay: Suppressive action on pre-pulse inhibition (PPI) decreased by methamphetamine, startle reaction of rats; assay type: in vivo, rat; settings: compound orally 1 to 10 mg/kg 30 minutes before methamphetamine 3 mg/kg, significant suppressive action on decreased PPI
Procedure: Suppressive Action of the Compound to Pre-Pulse Inhibition which Decreases by Methamphetamine)
Investigation was also carried out in a test system of a pre-pulse inhibition where action of antipsychotic agents is able to be specifically detected. A startle reaction being stimulated by combining sonic stimulations of […] and 72 dB (pre-pulse) prior to pulse stimulation and startle reaction to sonic stimulation of 120 dB (pulse stimulation) in the presence of a back sound of 60 dB was measured using a startle reaction measuring device which perceives the body movement of rats (manufactured by San Diego Instrument). The compound of the present invention or an appropriate solvent was administered to a rat and, after 30 minutes, a physiological saline solution of 3 mg/kg of methamphetamine was administered whereupon measurement of a startle reaction was carried out. The startle reactions upon the pulse stimulation and in the presence of pre-pulse were defined as A and B, respectively and values of pre-pulse inhibition (hereinafter, referred to as PPI) were calculated from the following formula.
Method for calculation of PPI: PPI(%)=100×(A−B)/A
When a pre-treatment with methamphetamine was conducted, the startle reaction attenuated to an extent of only about 20% whereby a reduction in pre-pulse inhibition was noted. In the present model, lowering of pre-pulse inhibition by methamphetamine tends to be recovered when a compound having an mGluR1 antagonistic action was orally administered (1 to 10 mg/kg) 30 minutes before the administration of methamphetamine.

T1 sequence (Q13255 19-1194): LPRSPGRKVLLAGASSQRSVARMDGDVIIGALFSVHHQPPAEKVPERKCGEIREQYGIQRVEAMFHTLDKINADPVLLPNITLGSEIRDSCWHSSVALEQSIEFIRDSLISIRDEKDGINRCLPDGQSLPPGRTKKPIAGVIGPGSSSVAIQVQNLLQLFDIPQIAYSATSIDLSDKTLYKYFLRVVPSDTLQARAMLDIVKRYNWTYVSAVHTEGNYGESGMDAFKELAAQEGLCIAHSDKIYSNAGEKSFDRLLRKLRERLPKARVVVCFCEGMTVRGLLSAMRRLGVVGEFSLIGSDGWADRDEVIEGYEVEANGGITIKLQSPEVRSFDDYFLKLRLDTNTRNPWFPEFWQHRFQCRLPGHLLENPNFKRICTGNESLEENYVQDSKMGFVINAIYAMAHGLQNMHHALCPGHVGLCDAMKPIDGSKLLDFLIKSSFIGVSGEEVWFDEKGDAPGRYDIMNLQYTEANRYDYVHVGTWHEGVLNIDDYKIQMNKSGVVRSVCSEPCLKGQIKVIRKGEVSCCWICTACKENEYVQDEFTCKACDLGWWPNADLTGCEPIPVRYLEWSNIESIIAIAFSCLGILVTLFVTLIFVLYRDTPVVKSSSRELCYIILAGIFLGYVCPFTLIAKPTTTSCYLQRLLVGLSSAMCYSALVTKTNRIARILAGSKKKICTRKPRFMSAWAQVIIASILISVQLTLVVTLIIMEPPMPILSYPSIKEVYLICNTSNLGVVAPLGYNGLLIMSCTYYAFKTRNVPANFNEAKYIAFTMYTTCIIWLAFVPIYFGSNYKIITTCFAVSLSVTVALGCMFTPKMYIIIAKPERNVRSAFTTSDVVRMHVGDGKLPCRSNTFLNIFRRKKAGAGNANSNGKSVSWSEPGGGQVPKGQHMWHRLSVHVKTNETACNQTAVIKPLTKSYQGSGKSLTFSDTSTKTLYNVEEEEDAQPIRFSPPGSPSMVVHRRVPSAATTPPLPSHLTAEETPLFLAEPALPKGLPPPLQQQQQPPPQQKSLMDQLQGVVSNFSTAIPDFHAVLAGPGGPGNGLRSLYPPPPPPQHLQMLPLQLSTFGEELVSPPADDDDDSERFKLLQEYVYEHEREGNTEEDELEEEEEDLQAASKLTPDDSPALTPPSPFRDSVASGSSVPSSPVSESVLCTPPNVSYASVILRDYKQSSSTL

Row | SMILES | IC50 [1] [nM] | Motility Quantity (Suppressive %) (Male ICR (CD-1) mice) [%] | Inhibition Effect to PPI Disorder (rats)
1 | Cc1c(C2=CCN(C(=O)OC(C)C)CC2)nnn1-c1ccc(F)nc1 [Example 43, Isopropyl 4-[1-(2-fluoropyridin-5-yl)-5-methyl-1H-[1,2,3]triazol-4-yl]-1,2,3,6-tetrahydropyridine-1-carboxylate] | 6.8 | >80 | yes
2 | Cc1c(C2=CCN(C(=O)N(C)C(C)C)CC2)nnn1-c1cccnc1Cl [Example 84] | – | >80 | –
3 | Cc1c(C2=CCN(C(=O)N(C)C(C)C)CC2)nnn1-c1cccnc1F [Example 82, 4-[1-(2-Fluoropyridin-3-yl)-5-methyl-1H-[1,2,3]-triazol-4-yl]-1,2,3,6-tetrahydropyridine-1-carboxylic acid isopropylmethylamide] | – | – | yes
4 | Cc1c(C2=CCN(C(=O)OC(C)C)CC2)nnn1-c1cccnc1Cl [Example 42, Isopropyl 4-[1-(2-chloropyridin-3-yl)-5-methyl-1H-[1,2,3]-triazol-4-yl]-1,2,3,6-tetrahydropyridine-1-carboxylate] | 6.7 | >80 | yes
